# How the values were obtained:
# Type in all cases: in vivo
# [1] = Anxiolytic activity by MacMillan's conflict test; conditions: rats, i.p., 2,5 mg.kg^-1, vs physiological saline
# Description: In these conditioning experiments which operate in the presence of a food reward, performed in rats according to the method described by MacMillan in Fed. Proceedings, 1975, 34, (9), p. 1870-1879, two parameters in the animal's behavioral responses are considered. The first parameter is the variation in the level of punished responses, in the presence of an electric shock, under the influence of the treatment in comparison with the level of punished responses under the influence of physiological saline. The second parameter is the variation in the level of unpunished responses, without an electric shock, under the influence of the same treatment, in comparison with the level of unpunished responses when physiological saline is administered. A specific anxiolytic effect is established when, after the administration of a substance, the level of only the punished responses is increased.
# [2] = Inhibition of isolation-induced aggression in mice; conditions: Mus musculus, ip, read-out: Inhibitory ED50 (effective dose inhibiting 50% of the aggressive animals)
# Description: The compounds of general formula I inhibit the attacking behavior of mice rendered aggressive by isolation according to the method described by Yen, Stanger and Millman in Arch. Int. Pharmacodyn. 1959, 123, p. 179-185.
# [3] = Anxiolytic activity by the Geller-Seifter test; conditions: rats, i.p., p<0.05
# Procedure: The anxiolytic activity of the compounds of the present invention was also assessed in rats with the Geller-Seifter test described by Geller, Kulac and Seifter in Psychopharmacologia, 1962, 3, p. 374-375.
# An increase related exclusively to the levels of the punished responses determines the existence of an authentic anxiolytic effect.
# [4] = Inhibition of aggression in isolated and bulbectomized rats
# Procedure: The inhibition of aggression was assessed according to the method described by Vergnes and Karli in C.R. Soc. Biol. 1963, 157, p. 1061. The effect on the aggression is assessed in terms of the percentage of animals which became non-killers after treatment.
# [5] = Anxiolytic activity by the "staircase" test; design: key to % variation in the steps climbed: NS: not significant; conditions: rats
# Description: The anxiolytic activity of the compounds of the invention was investigated in rats according to the method described by Thiebot, Soubrie and Boissier in J. Pharmacol. 1976, 7, (1), p. 87-102. In this test, behavior involving rearing movements is associated with a state of distress of the animal. The number of steps climbed represents the normal exploratory behavior of the rat introduced into the enclosure. Normally, an efficacious anxiolytic compound should decrease, during the test which lasts 3 minutes, the number of rearing movements without modifying the number of steps climbed, or on the contrary should increase this latter parameter.
# [6] = Anxiolytic activity by the four-plates test; conditions: mice; for change in vivo at 5 mg/kg: Mus musculus, ip, i.p., 5 mg.kg^-1, read-out: % increase in the responses (transitions)
# Procedure: The anxiolytic activity of the compounds of the general formula I was investigated in mice according to the method of Aron Simon Larousse and Boissier described in Neuropharmacology (1971) 10 p. 459-469). After treatment of the animals by means of different doses of the compounds of the invention administered intraperitoneally or orally, the increase in the percentage of transitions during the exploration of the base of the test cage, in the presence of electric shocks, was assessed.
# [7] = Inhibition of the active conditioned avoidance response in rats; conditions: i.p.
# Description: The results obtained with the compounds of general formula I during the various experiments employing the method described by Courvoisier et al. in Arch. Int. Pharmacodyn., 1953, 92, p. 305-361 and by Janssen et al. in Arzneim, Forsch, 1965, 15, p.
compound,measurement,setting,value
"O=C1CN(Cc2ccccc2F)CC(=O)N1CCCN1CCN(c2cccc(C(F)(F)F)c2)CC1 [Example 1, 4-(2-Fluorobenzyl)-1-{3-[1-(3-trifluoromethylphenyl)-4-piperazinyl]propyl}-2,6-piperazinedione dimandelate]",% variation in the unpunished responses,[1]; NS (not significant),+18%
same,% variation in the punished responses,[1]; S (significant),+49%
same,ED50,[2],7.64 mg/kg
same,increase in the punished responses,[3]; 2.5 mg.kg^-1,39%
same,% of non-killer animals,"[4]; i.p., 25 mg.kg^-1",45%
same,% variation in the rearing movements,"[5]; i.p., 10 mg.kg^-1",-39%
same,% variation in the steps climbed,"[5]; i.p., 10 mg.kg^-1",NS
same,% variation in the rearing movements,"[5]; i.p., 20 mg.kg^-1",-64%
same,% variation in the steps climbed,"[5]; i.p., 20 mg.kg^-1",NS
same,% variation in the rearing movements,"[5]; i.p., 2,5 mg.kg^-1",-20%
same,% variation in the steps climbed,"[5]; i.p., 2,5 mg.kg^-1",NS
same,change in vivo at 5 mg/kg,[6],65%
same,% increase in the responses,"[6]; p.o., 50 mg.kg^-1",64%
"O=C1CN(Cc2ccccc2F)CC(=O)N1CCCN1CCN(c2cccc(Cl)c2)CC1 [Example 2, 4-(2-Fluorobenzyl)-1-{3-8 1-(3-chlorophenyl)-4-piperazinyl]propyl}-2,6-piperazinedione dimandelate]",increase in the punished responses,[3]; 5.0 mg.kg^-1,65%
"O=C1CN(Cc2ccccc2)CC(=O)N1CCCN1CCN(c2ccc(F)cc2)CC1 [Example 9, 4-Benzyl-1-{3-[1-(4-fluorophenyl)-4-piperazinyl]propyl}-2,6-piperazinedioneoxalate]",ED50,[2],8.6 mg/kg
same,% of non-killer animals,"[4]; i.p., 25 mg.kg^-1",60%
"Cc1ccccc1N1CCN(CCCN2C(=O)CN(Cc3ccccn3)CC2=O)CC1.Cl.Cl.Cl [Example 19, 4-(2-Pyridylmethyl)-1-{3-[1-(2-methylphenyl)-4-piperazinyl]propyl}-2,6-piperazinedione trihydrochloride]",ED50,[2],6.78 mg/kg
same,% ICAR (percentage inhibition of the conditioned avoidance response),[7]; 20 mg.kg^-1,26%
same,% ICAR (percentage inhibition of the conditioned avoidance response),[7]; 40 mg.kg^-1,73%
"O=C(O)C(=O)O.O=C(O)C(=O)O.O=C1CN(Cc2ccccn2)CC(=O)N1CCCN1CCN(c2cccc(C(F)(F)F)c2)CC1 [Example 21, 4-(2-Pyridylmethyl)-1-{3-[1-(3-trifluoromethylphenyl)-4-piperazinyl]propyl}-2,6-piperazinedione dioxalate]",ED50,[2],11.1 mg/kg
same,% of non-killer animals,"[4]; i.p., 12,5 mg.kg^-1",73%
same,change in vivo at 5 mg/kg,[6],69%

# Reference: patent publication US4820707A, “2,6-piperazinedione compounds” (ADIR Et Cie, priority 1986, dated 1989)
